Among the data in patent US9206184B2, “Disubstituted benzothienyl-pyrrolotriazines and uses thereof” (BAYER INTELLECTUAL PROPERTY GmbH, priority 2011, dated 2015) are IC50 values, retold here.

In one assay the target is human FGFR-1 (Homo sapiens, UniProt P11362). In words: FGFR-1 high ATP kinase assay (TR-FRET). Format: biochemical. To be noted: 2 mM ATP; 15 min pre-incubation with enzyme; compounds of the invention. A general note: In TR-FRET formats the signal depends on donor and acceptor labels being close together.
human FGFR-1, sequence (P11362 22-822 limits assumed): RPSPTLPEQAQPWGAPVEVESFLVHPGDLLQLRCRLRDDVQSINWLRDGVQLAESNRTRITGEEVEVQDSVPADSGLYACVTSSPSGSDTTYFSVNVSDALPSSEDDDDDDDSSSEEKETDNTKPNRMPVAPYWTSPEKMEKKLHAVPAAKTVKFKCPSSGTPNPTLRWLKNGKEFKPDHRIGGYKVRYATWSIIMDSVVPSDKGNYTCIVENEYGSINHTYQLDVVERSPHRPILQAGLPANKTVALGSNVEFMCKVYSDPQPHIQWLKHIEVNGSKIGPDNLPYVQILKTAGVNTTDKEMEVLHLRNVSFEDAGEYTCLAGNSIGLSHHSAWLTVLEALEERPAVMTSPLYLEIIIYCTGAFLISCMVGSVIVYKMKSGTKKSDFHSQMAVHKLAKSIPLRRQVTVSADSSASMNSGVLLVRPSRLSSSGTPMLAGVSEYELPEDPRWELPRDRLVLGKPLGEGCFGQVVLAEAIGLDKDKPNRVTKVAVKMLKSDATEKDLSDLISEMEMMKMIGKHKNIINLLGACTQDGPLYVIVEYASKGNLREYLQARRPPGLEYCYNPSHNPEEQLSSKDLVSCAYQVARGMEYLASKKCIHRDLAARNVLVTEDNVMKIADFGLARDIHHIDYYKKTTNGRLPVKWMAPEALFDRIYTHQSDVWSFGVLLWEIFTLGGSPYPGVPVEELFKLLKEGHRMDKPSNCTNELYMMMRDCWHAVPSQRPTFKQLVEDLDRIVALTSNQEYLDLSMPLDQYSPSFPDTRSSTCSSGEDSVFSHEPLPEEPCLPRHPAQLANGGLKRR
The target in the next assay is human FGFR-3 (Homo sapiens (Human), UniProt P22607). As to the kind of experiment: FGFR-3 kinase assay (TR-FRET). Format: biochemical. Particulars: 10 μM ATP.
human FGFR-3, sequence (P22607 397-806): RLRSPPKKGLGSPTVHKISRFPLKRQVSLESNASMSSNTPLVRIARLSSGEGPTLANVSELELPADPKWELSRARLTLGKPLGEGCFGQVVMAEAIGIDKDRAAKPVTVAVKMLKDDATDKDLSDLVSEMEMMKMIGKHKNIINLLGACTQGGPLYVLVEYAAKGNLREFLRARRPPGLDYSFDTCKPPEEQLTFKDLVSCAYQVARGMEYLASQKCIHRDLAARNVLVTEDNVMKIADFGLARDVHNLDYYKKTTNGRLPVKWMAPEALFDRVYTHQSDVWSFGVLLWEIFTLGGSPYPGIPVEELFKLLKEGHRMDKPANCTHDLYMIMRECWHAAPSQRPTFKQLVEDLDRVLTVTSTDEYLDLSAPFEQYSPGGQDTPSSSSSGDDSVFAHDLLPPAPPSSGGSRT
The mark [1] stands for this setting: 15 min pre-incubation with enzyme, compounds of the invention.

Counter-ions that a name gives are not always drawn.

As a reminder, the IC50 is the midpoint of a concentration-inhibition curve. A lower IC50 goes with greater potency in that assay. With `CCOCc1c(-c2cc3cc(C)cc(OC)c3s2)c2c(N)ncnn2c1C(=O)N(C)C` [Example 114], the half-maximal inhibitory concentration (IC50) on human FGFR-1 is 11.2 nM; at human FGFR-3 (setting [1]), 9.6 nM.

`COc1cc(C)cc2cc(-c3c(CNCC(C)O)c(CN4CCOCC4)n4ncnc(N)c34)sc12` (racemic) [Example 53, rac-1-({[4-Amino-5-(7-methoxy-5-methyl-1-benzothiophen-2-yl)-7-(morpholin-4-ylmethyl)pyrrolo[2,1-f][1,2,4]triazin-6-yl]methyl}amino)propan-2-ol]: the IC50 at human FGFR-1 amounted to 3.9 nM; on human FGFR-3 (setting [1]), 2.5 nM.

In the case of `CCOCc1c(-c2cc3cc(C)cc(OC)c3s2)c2c(N)ncnn2c1C(=O)N[C@@H]1CCNC1=O` [Example 106, 4-Amino-6-(ethoxymethyl)-5-(7-methoxy-5-methyl-1-benzothiophen-2-yl)-N-[(3R)-2-oxopyrrolidin-3-yl]pyrrolo[2,1-f][1,2,4]triazine-7-carboxamide], the 50% inhibitory concentration (IC50) at human FGFR-1 came to 6.4 nM; against human FGFR-3 (setting [1]), 7.1 nM.

As for `CCOCc1c(-c2cc3cc(C)cc(OC)c3s2)c2c(N)ncnn2c1CN1CC(F)(F)C1` [Example 102], the IC50 at human FGFR-1 turned out to be 39.2 nM; against human FGFR-3 (setting [1]), 39.8 nM.

As to `COc1cc(C)cc2cc(-c3c(CNC(C)=O)c(CN4CCN(C(C)=O)CC4)n4ncnc(N)c34)sc12` [Example 66, N-({7-[(4-Acetylpiperazin-1-yl)methyl]-4-amino-5-(7-methoxy-5-methyl-1-benzothiophen-2-yl)pyrrolo[2,1-f][1,2,4]triazin-6-yl}methyl)acetamide], the IC50 on human FGFR-1 amounted to 1.6 nM; against human FGFR-3 (setting [1]), 3.7 nM.

In the case of `COc1cc(C)cc2cc(-c3c(CN4CCNC(=O)C4)c(CN4CCOCC4)n4ncnc(N)c34)sc12` [Example 52, 4-{[4-Amino-5-(7-methoxy-5-methyl-1-benzothiophen-2-yl)-7-(morpholin-4-ylmethyl)pyrrolo-[2,1-f][1,2,4]triazin-6-yl]methyl}piperazin-2-one], the values for the IC50 against human FGFR-1 and against human FGFR-3 (setting [1]) were 9.7 nM and 7 nM, respectively.

`COc1cc(C)cc2cc(-c3c(CNCC(C)(C)O)c(Cl)n4ncnc(N)c34)sc12` [Example 81, 1-({[4-Amino-7-chloro-5-(7-methoxy-5-methyl-1-benzothiophen-2-yl)pyrrolo[2,1-f][1,2,4]triazin-6-yl]methyl}amino)-2-methylpropan-2-ol formiate]: the IC50 against human FGFR-1 amounted to 1.9 nM; on human FGFR-3 (setting [1]) it was 0.5 nM.

On to `COc1cc(C)cc2cc(-c3c(CNCC(C)(C)O)c(Cl)n4ncnc(N)c34)sc12` [Example 82, 1-({[4-Amino-7-chloro-5-(7-methoxy-5-methyl-1-benzothiophen-2-yl)pyrrolo[2,1-f][1,2,4]triazin-6-yl]methyl}amino)-2-methylpropan-2-ol], for which the concentration for half-maximal inhibition (IC50) against human FGFR-1 was 3.4 nM; against human FGFR-3 (setting [1]), 16 nM.

Regarding `COc1cc(C)cc2cc(-c3c(C)c(CN4CCNCC4)n4ncnc(N)c34)sc12` [Example 84, 5-(7-Methoxy-5-methyl-1-benzothiophen-2-yl)-6-methyl-7-(piperazin-1-ylmethyl)pyrrolo[2,1-f]-[1,2,4]triazin-4-amine formiate], the figures for the IC50 against human FGFR-1 and on human FGFR-3 (setting [1]) were 3.7 nM and 16.5 nM, respectively.

Turning to `COc1cc(C)cc2cc(-c3c(CO)c(C)n4ncnc(N)c34)sc12` [Example 75, [4-Amino-5-(7-methoxy-5-methyl-1-benzothiophen-2-yl)-7-methylpyrrolo[2,1-f][1,2,4]triazin-6-yl]methanol], the IC50 on human FGFR-1 was determined as 4.1 nM; at human FGFR-3 (setting [1]) it was 19.8 nM.

Consider `COc1cc(C)cc2cc(-c3c(CNC(C)=O)c(CN4CCNC(=O)C4)n4ncnc(N)c34)sc12` [Example 67, N-({4-Amino-5-(7-methoxy-5-methyl-1-benzothiophen-2-yl)-7-[(3-oxopiperazin-1-yl)methyl]-pyrrolo[2,1-f][1,2,4]triazin-6-yl}methyl)acetamide], for which the IC50 worked out at 5 nM at human FGFR-1 and 9.4 nM against human FGFR-3 (setting [1]).

Take `COc1cc(C)cc2cc(-c3c(CN4CCNC(=O)C4)c(CN4CCN(C(C)=O)CC4)n4ncnc(N)c34)sc12` [Example 59, 4-({7-[(4-Acetylpiperazin-1-yl)methyl]-4-amino-5-(7-methoxy-5-methyl-1-benzothiophen-2-yl)pyrrolo[2,1-f][1,2,4]triazin-6-yl}methyl)piperazin-2-one]: the 50% inhibitory concentration (IC50) came out at 3.8 nM against human FGFR-1 and 6.8 nM against human FGFR-3 (setting [1]).

On to `COc1cc(C)cc2cc(-c3c(CNCC(C)(C)O)c(CN4CCOCC4)n4ncnc(N)c34)sc12` [Example 54, 1-({[4-Amino-5-(7-methoxy-5-methyl-1-benzothiophen-2-yl)-7-(morpholin-4-ylmethyl)pyrrolo-[2,1-f][1,2,4]triazin-6-yl]methyl}amino)-2-methylpropan-2-ol], for which the IC50 was 11.2 nM against human FGFR-1 and 6.8 nM against human FGFR-3 (setting [1]).

As to `COc1cc(C)cc2cc(-c3c(CNCC(C)(C)O)c(CN4CCN(C(C)=O)CC4)n4ncnc(N)c34)sc12` [Example 57, 1-(4-{[4-Amino-6-{[(2-hydroxy-2-methylpropyl)amino]methyl}-5-(7-methoxy-5-methyl-1-benzothiophen-2-yl)pyrrolo[2,1-f][1,2,4]triazin-7-yl]methyl}piperazin-1-yl)ethanone], the 50% inhibitory concentration (IC50) is 3.2 nM against human FGFR-1 and 1.8 nM against human FGFR-3 (setting [1]).

In the case of `COc1cc(C)cc2cc(-c3c(CO)c(Cl)n4ncnc(N)c34)sc12` [Example 79, [4-Amino-7-chloro-5-(7-methoxy-5-methyl-1-benzothiophen-2-yl)pyrrolo[2,1-f][1,2,4]triazin-6-yl]methanol], the IC50 at human FGFR-1 was determined as 12.6 nM; against human FGFR-3 (setting [1]), 17.9 nM.

Regarding `COc1cc(C)cc2cc(-c3c(COCC(N)=O)c(CN4CCNCC4)n4ncnc(N)c34)sc12` [Example 33, 2-{[4-Amino-5-(7-methoxy-5-methyl-1-benzothiophen-2-yl)-7-(piperazin-1-ylmethyl)pyrrolo-[2,1-f][1,2,4]triazin-6-yl]methoxy}acetamide], the IC50 was determined as 1 nM on human FGFR-1 and 7.2 nM on human FGFR-3 (setting [1]).

For the molecule `COc1cc(C)cc2cc(-c3c(CN4CCNC(=O)C4)c(CN4CCN(C=O)CC4)n4ncnc(N)c34)sc12` [Example 58, 4-({4-Amino-5-(7-methoxy-5-methyl-1-benzothiophen-2-yl)-6-[(3-oxopiperazin-1-yl)methyl]-pyrrolo[2,1-f][1,2,4]triazin-7-yl}methyl)piperazine-1-carbaldehyde formiate], the IC50 is 6.8 nM on human FGFR-1 and 9.8 nM against human FGFR-3 (setting [1]).

In the case of `CCOCc1c(-c2cc3cc(C)cc(OC)c3s2)c2c(N)ncnn2c1C(=O)N1CNC(=O)C1` [Example 117], the IC50 at human FGFR-1 is 8.8 nM; at human FGFR-3 (setting [1]), 5.3 nM.

With `CCOCc1c(-c2cc3cc(C)cc(OC)c3s2)c2c(N)ncnn2c1CN1CCN(C(C)=O)CC1` [Example 20, 1-(4-{[4-Amino-6-(ethoxymethyl)-5-(7-methoxy-5-methyl-1-benzothiophen-2-yl)pyrrolo[2,1-f]-[1,2,4]triazin-7-yl]methyl}piperazin-1-yl)ethanone], the IC50 against human FGFR-1 came out at 25 nM; against human FGFR-3 (setting [1]), 26.1 nM.

For the molecule `COCc1c(-c2cc3cc(C)cc(OC)c3s2)c2c(N)ncnn2c1CN[C@@H]1CCNC1=O` [Example 3, (3R)-3-({[4-Amino-6-(methoxymethyl)-5-(7-methoxy-5-methyl-1-benzothiophen-2-yl)pyrrolo-[2,1-f][1,2,4]triazin-7-yl]methyl}amino)pyrrolidin-2-one dihydrochloride], the 50% inhibitory concentration (IC50) on human FGFR-3 (15 min pre-incubation with enzyme, compounds of the invention, dihydrochloride) came to 46.6 nM.

Turning to `Cc1c(-c2nc(C3CCC3)n3ccnc(N)c23)sc2ccccc12` [Example 210 in WO 2007/061737, reference compound], it took 554 nM to reach half-maximal inhibition against human FGFR-3 (comparative prior art compounds, labels are Example No. in WO 2007/061737) (IC50).
